The source of these data is US20250270222A1, “AP2 ASSOCIATED KINASE 1 INHIBITORS AND USES THEREOF” (Satellos Bioscience Inc., priority 2023, published 2025).

Holding throughout (assay type): biochemical
Experiment [1] has as its target AAK1 (amino acids T27-A365) (Homo sapiens (Human), UniProt Q2M2I8). Briefly: AAK1 pSENs assay. The following applies: ratio of AAK1 pSENs activity to GAK pSENs activity. The procedure, abridged:
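Untagged, biotinylated E. coli-expressed AAK1 at 20 nM preincubated with compound 15 min at 25° C in HEPES pH 7.5 buffer with 10 mM MgCl2 and 1 mM DTT. Reaction started with AQT0759 and ATP, added as 30 uM and 70 uM solutions in equal volume.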

Experiment [2] concerns the target BIKE (amino acids S38-E345) (K320A, K321A) (Homo sapiens (Human), UniProt Q9NSY1, K320A/K321A). Put plainly: BIKE pSENs assay. The method, then: (§1) The recombinant proteins were independently expressed in Esherichia coli BL21(DE3) cells cultured in Luria-Bertani (LB) medium until OD600 reached 0.6-0.8, then cooled to 15° C., and supplemented with 0.5 mM isopropyl 1-thio-D-galactopyranoside (IPTG) induce protein expression 16 h. Cells were harvested and resuspended in lysis buffer (50 mM HEPES pH 7.5, 500 mM NaCl, 5 mM imidazole, 5% glycerol, 0.5 mM Tris (2-carboxyethyl) phosphine (TCEP), cOmplete Protease Inhibitor Tablet (Roche)) and lysed by microfluidics high pressure homogenizer (UH-06, Union-Biotech). Proteins were purified using Ni-Affinity chromatography (His FF column, Bestchrom) and eluted stepwise in binding buffer with 20-300 mM imidazole. Removal of the hexahistidine tag was performed at 4° C. overnight using recombinant TEV protease and reacted with BirA to obtain the corresponding biotinylated-AAK1. BIKE or GAK proteins. Further separated in the reverse Strep column (Strep-Tactin® XT, IBA). The Biotin elution sample was collected containing untagged biotinylated protein was then purified by Ion-exchange chromatography (Mono Q 10/100 GL, Cytiva) and Size-exclusion chromatography (HiLoad 16/600 Superdex 200 pg, Cytiva). The pure protein was stored in a storage buffer 50 mM HEPES (pH 7.5), 300 mM NaCl, 5% glycerol at −80° C. Protein were characterized by SDS-PAGE. LC-MS and aSEC.
BIKE protein was dissolved at 20 nM in 1× enzyme solution (50 mM HEPES pH7.5, 10 mM MgCl2, 1 mM DTT, 1% glycerol, 0.5 mM EGTA, 0.01% Briji35, 0.02% BSA) and 12.5 ul was incubated with 250 nl DMSO or 250 nl compound in DMSO at 25° C. for 15 min. The reaction was started by addition of 12.5 ul of 30 uM AQT0759 (Assayquant, CSKS-AQT0759B) and 40 uM ATP which were diluted in 1× substrate dilution buffer (50 mM HEPES pH7.5, 10 mM MgCl2. 1 mM DTT, 1% glycerol, 0.5 mM EGTA, 0.01% Briji35).

The target of experiment [3] is GAK (amino acids Q25-N335) (Homo sapiens (Human), UniProt O14976). Briefly: GAK pSENs assay. As to the method: as §1
This example describes one illustrative method for determining the IC50 of the compounds of the present invention against GAK (amino acids Q25-N335).

Chain of GAK (amino acids Q25-N335) (O14976 25-335): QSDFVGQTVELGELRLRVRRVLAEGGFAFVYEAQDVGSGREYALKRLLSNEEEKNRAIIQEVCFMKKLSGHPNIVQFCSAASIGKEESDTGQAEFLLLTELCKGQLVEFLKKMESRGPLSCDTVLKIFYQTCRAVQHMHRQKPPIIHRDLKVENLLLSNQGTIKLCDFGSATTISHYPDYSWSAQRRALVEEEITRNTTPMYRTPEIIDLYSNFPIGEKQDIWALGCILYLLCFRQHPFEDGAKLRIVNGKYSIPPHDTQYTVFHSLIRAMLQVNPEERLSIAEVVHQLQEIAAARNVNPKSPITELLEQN
Chain of BIKE (amino acids S38-E345) (K320A, K321A) (Q9NSY1 38-345 K320A/K321A): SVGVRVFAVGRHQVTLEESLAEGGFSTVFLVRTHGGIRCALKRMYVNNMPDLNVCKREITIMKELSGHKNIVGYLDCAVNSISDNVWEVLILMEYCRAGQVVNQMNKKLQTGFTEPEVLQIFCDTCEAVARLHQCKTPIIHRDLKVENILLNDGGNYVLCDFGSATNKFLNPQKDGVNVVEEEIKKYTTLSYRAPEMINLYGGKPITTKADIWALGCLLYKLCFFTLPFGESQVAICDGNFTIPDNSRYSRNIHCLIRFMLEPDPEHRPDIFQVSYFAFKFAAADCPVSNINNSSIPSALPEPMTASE
Chain of AAK1 (amino acids T27-A365) (Q2M2I8 27-365): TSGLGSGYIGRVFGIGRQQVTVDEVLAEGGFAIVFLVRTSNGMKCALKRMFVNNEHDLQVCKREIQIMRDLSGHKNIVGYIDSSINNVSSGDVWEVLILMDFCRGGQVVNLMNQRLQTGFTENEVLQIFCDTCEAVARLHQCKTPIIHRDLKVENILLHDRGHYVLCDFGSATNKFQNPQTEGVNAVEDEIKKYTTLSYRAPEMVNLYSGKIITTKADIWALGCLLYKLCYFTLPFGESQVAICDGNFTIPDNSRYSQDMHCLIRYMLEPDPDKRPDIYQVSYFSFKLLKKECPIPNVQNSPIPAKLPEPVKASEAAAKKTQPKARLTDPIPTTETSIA

`O=C1C[C@H](OC(=O)N[C@@H]2CCN(c3ccn4ncc(-c5cccnc5OC5CC5)c4n3)C2)CN1` [Compound I-54, [(3S)-5-oxopyrrolidin-3-yl]N-[(3R)-1-[3-[2-(cyclopropoxy)-3-pyridyl]pyrazolo[1,5-a]pyrimidin-5-yl]pyrrolidin-3-yl]carbamate]: in experiment [1], the “AAK1:GAK pSENs Selectivity” value is “C (C: 0.076-0.15)”. Further, the IC50 in experiment [2] and in experiment [3] was greater than 1500 nM in each case.

`CC1(OC(=O)N2CCN(c3ccn4ncc(-c5cccnc5OCC5COC5)c4n3)CC2)COC1` [Compound I-20]: in experiment [1], the “AAK1:GAK pSENs Selectivity” value is “D (D: 0.16-1.00)”. In experiment [2], this compound registered an IC50 greater than 1500 nM.

On to `CC1(OC(=O)N2CCN(c3ccn4ncc(-c5cccnc5OC5CCC5)c4n3)CC2)COC1` [Compound I-17, (3-Methyloxetan-3-yl) 4-[3-[2-(cyclobutoxy)-3-pyridyl]pyrazolo[1,5-a]pyrimidin-5-yl]piperazine-1-carboxylate], for which the “AAK1:GAK pSENs Selectivity” value in experiment [1] is given as “B (B: 0.016-0.075)”. The IC50 in experiment [2] and in experiment [3] was greater than 1500 nM each time.

With `CC(C)Oc1ncccc1-c1cnn2ccc(N3CCN(C(=O)O[C@@]4(C)CCNC4)CC3)nc12` [Compound I-21, [(3S)-3-Methylpyrrolidin-3-yl]4-[3-(2-isopropoxy-3-pyridyl)pyrazolo[1,5-a]pyrimidin-5-yl]piperazine-1-carboxylate], the “AAK1:GAK pSENs Selectivity” value in experiment [1] is recorded as “B (B: 0.016-0.075)”. In experiment [2], this compound gave an IC50 greater than 1500 nM.

As to `O=C(O[C@H]1CO[C@H]2OCC[C@H]21)N1CCN(c2ccn3ncc(-c4cnccn4)c3n2)CC1` [Compound I-66, [(3aS,4R,6aR)-2,3,3a, 4,5,6a-hexahydrofuro[2,3-b]furan-4-yl]-4-(3-pyrazin-2-ylpyrazolo[1,5-a]pyrimidin-5-yl)piperazine-1-carboxylate], the “AAK1:GAK pSENs Selectivity” value in experiment [1] is on record as “D (D: 0.16-1.00)”. In experiment [2], this compound displayed an IC50 greater than 1500 nM.

For the compound `C[C@@]1(OC(=O)N[C@H]2CCN(c3ccn4ncc(-c5cccnc5OC5CC5)c4n3)C2)CCNC1` [Compound I-57, (R)-3-methylpyrrolidin-3-yl ((S)-1-(3-(2-cyclopropoxypyridin-3-yl)pyrazolo[1,5-a]pyrimidin-5-yl)pyrrolidin-3-yl)carbamate], the “AAK1:GAK pSENs Selectivity” value in experiment [1] is “C (C: 0.076-0.15)”. Besides, the IC50 in experiment [2] is greater than 1500 nM.

With `CN1CC[C@@](C)(OC(=O)N2CCN(c3ccn4ncc(-c5cccnc5OC5CC5)c4n3)CC2)C1` [Compound I-50, [(3R)-1,3-dimethylpyrrolidin-3-yl]-4-[3-[2-(cyclopropoxy)-3-pyridyl]pyrazolo[1,5-a]pyrimidin-5-yl]piperazine-1-carboxylate], the “AAK1:GAK pSENs Selectivity” value in experiment [1] is “A (A: ≤0.015)”. In experiment [3], this compound displayed an IC50 greater than 1500 nM.

Regarding `[2H]C([2H])([2H])N1C[C@@H](OC(=O)N2CCN(c3nc4c(-c5cccnc5OC5CC5)cnn4cc3F)CC2)CC1=O` [Compound I-116, [(3S)-5-oxo-1-(trideuteriomethyl)pyrrolidin-3-yl]4-[3-[2-(cyclopropoxy)-3-pyridyl]-6-fluoro-pyrazolo[1,5-a]pyrimidin-5-yl]piperazine-1-carboxylate], the “AAK1:GAK pSENs Selectivity” value in experiment [1] was “A (A: ≤0.015)”. This compound showed an IC50 in experiment [3] greater than 1500 nM.

In the case of `CC(C)Oc1ncccc1-c1cnn2ccc(N3CCN(C(=O)OC4(C)COC4)CC3)nc12` [Compound I-1, (3-methyloxetan-3-yl)-4-[3-(2-isopropoxy-3-pyridyl)pyrazolo[1,5-a]pyrimidin-5-yl]piperazine-1-carboxylate], the “AAK1:GAK pSENs Selectivity” value in experiment [1] is listed as “A (A: ≤0.015)”. The IC50 in experiment [3] was greater than 1500 nM.

For the compound `C[C@@H]1CN(c2ccn3ncc(-c4cccnc4OC4CC4)c3n2)CCN1C(=O)O[C@@H]1CNC(=O)C1` [Compound I-39, [(3S)-5-oxopyrrolidin-3-yl]-(2R)-4-[3-[2-(cyclopropoxy)-3-pyridyl]pyrazolo[1,5-a]pyrimidin-5-yl]-2-methyl-piperazine-1-carboxylate], the “AAK1:GAK pSENs Selectivity” value in experiment [1] is “A (A: ≤0.015)”. Also, the IC50 in experiment [3] is greater than 1500 nM.

As to `CN1C[C@@H](OC(=O)N2CCN(c3ccn4ncc(-c5cccnc5OC5CCOC5)c4n3)CC2)CC1=O` (stereo partly drawn) [Compound I-119], the “AAK1:GAK pSENs Selectivity” value in experiment [1] is recorded as “B (B: 0.016-0.075)”. The compound also showed an IC50 in experiment [3] greater than 1500 nM.

Regarding `O=C1C[C@H](OC(=O)N2CCN(c3ccn4ncc(-c5cccnc5NC5CCC5)c4n3)CC2)CN1` [Compound I-46, [(3S)-5-oxopyrrolidin-3-yl]4-[3-[2-(cyclobutylamino)-3-pyridyl]pyrazolo[1,5-a]pyrimidin-5-yl]piperazine-1-carboxylate], in experiment [1], the “AAK1:GAK pSENs Selectivity” value was “E (E: >1.00)”. This compound also had an IC50 in experiment [2] greater than 1500 nM.

`O=C1C[C@H](OC(=O)N2CCN(c3ccn4ncc(-c5cccnc5NC5CNC5)c4n3)CC2)CN1` [Compound I-49, (S)-5-oxopyrrolidin-3-yl 4-(3-(2-(azetidin-3-ylamino)pyridin-3-yl)pyrazolo[1,5a]pyrimidin-5-yl)piperazine-1-carboxylate]: in experiment [2], the IC50 was greater than 1500 nM.

Consider `[2H]C1([2H])N(C(=O)O[C@@H]2CNC(=O)C2)C([2H])([2H])C([2H])([2H])N(c2ccn3ncc(-c4cccnc4OC4CC4)c3n2)C1([2H])[2H]` [Compound I-72, [(3S)-5-oxopyrrolidin-3-yl]4-[3-[2-(cyclopropoxy)-3-pyridyl]pyrazolo[1,5-a]pyrimidin-5-yl]-2,2,3,3,5,5,6,6-octadeuterio-piperazine-1-carboxylate], for which the “AAK1:GAK pSENs Selectivity” value in experiment [1] is recorded as “A (A: ≤0.015)”. Moreover, the IC50 in experiment [3] is greater than 1500 nM.

For `CN(CCNc1ccn2ncc(-c3cccnc3OC3CN(C(=O)OC(C)(C)C)C3)c2n1)C(=O)OC(C)(C)C` [Compound I-62, Tert-butyl 3-[[3-[5-[2-[tert-butoxycarbonyl(methyl)amino]ethylamino]pyrazolo[1,5-a]pyrimidin-3-yl]-2-pyridyl]oxy]azetidine-1-carboxylate], in experiment [1], the “AAK1:GAK pSENs Selectivity” value is “A (A: ≤0.015)”. The IC50 in experiment [3] was greater than 1500 nM.

With `CC1(OC(=O)N2CCN(c3ccn4ncc(-c5cccnc5OC5COC5)c4n3)CC2)COC1` [Compound I-18, (3-Methyloxetan-3-yl)-4-[3-[2-(oxetan-3-yloxy)-3-pyridyl]pyrazolo[1,5-a]pyrimidin-5-yl]piperazine-1-carboxylate], the “AAK1:GAK pSENs Selectivity” value in experiment [1] is given as “A (A: ≤0.015)”. Further, in experiment [3], the half-inhibitory concentration (IC50) was greater than 1500 nM.

As to `CN1C[C@@H](OC(=O)N2CCN(c3ccn4ncc(-c5cccnc5OC5CC5)c4n3)CC2)CC1=O` [Compound I-34], the “AAK1:GAK pSENs Selectivity” value in experiment [1] is reported as “A (A: ≤0.015)”. In experiment [3], this compound yielded an IC50 greater than 1500 nM.

In the case of `O=C1C[C@H](OC(=O)N2CCN(c3ccn4ncc(-c5cccnc5OC5COC5)c4n3)CC2)CN1` [Compound I-25, [(3S)-5-Oxopyrrolidin-3-yl]4-[3-[2-(oxetan-3-yloxy)-3-pyridyl]pyrazolo[1,5-a]pyrimidin-5-yl]piperazine-1-carboxylate], in experiment [1], the “AAK1:GAK pSENs Selectivity” value is recorded as “A (A: ≤0.015)”. In experiment [3], this compound gave an IC50 greater than 1500 nM.

For `CC(=O)N1CC(Oc2ncccc2-c2cnn3ccc(N4CCN(C(=O)O[C@@H]5CNC(=O)C5)CC4)nc23)C1` [Compound I-59, (S)-5-oxopyrrolidin-3-yl 4-(3-(2-((1-acetylazetidin-3-yl)oxy)pyridin-3-yl)pyrazolo[1,5-a]pyrimidin-5-yl)piperazine-1-carboxylate], in experiment [1], the “AAK1:GAK pSENs Selectivity” value was “A (A: ≤0.015)”. In experiment [3], this compound returned an IC50 greater than 1500 nM.

Usually IC50 stands for the concentration at which inhibition is half-maximal.
